Source: BindingDB's records for patent US10781211 (LUNDBECK LA JOLLA RESEARCH CENTER, INC., 2020)

Molecular target: T1, Monoglyceride lipase (Homo sapiens, UniProt Q99685)
T1 sequence (Q99685 whole entry): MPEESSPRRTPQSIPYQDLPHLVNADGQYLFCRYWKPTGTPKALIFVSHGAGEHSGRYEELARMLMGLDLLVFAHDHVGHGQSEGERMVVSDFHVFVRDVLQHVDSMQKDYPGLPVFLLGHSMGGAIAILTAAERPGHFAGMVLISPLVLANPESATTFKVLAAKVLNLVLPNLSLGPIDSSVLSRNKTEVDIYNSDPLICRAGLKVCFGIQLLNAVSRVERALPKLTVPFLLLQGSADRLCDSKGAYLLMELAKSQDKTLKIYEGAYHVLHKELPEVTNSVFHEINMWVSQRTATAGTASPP
Test: In Vitro Competitive Activity-Based Protein Profiling Assay
Protocol: Human: Proteomes (human prefrontal cortex or cell membrane fractions) (50 μL, 1.0-2.0 mg/mL total protein concentration) were preincubated with varying concentrations of inhibitors at 37° C. After 30 min, FP-Rh or JW912 (1.0 μL, 50 μM in DMSO) was added and the mixture was incubated for another 30 min at room temperature. Reactions were quenched with SDS loading buffer (15 μL-4X) and run on SDS-PAGE.

IC50, < 0.1 µM:
O=C(OC(C(F)(F)F)C(F)(F)F)N1CCC2(CCN(Cc3ccc(C(F)(F)F)cc3N3CCCC3)C2)CC1 [US10781211, Example 201]
O=C(OC(C(F)(F)F)C(F)(F)F)N1CCC2(CCN(Cc3cc(N4CCCC4)cc(C(F)(F)F)c3)C2)CC1 [US10781211, Example 202]
O=C(OC(C(F)(F)F)C(F)(F)F)N1CCC2(CCCN2Cc2cc(N3CCCC3)cc(C(F)(F)F)c2)CC1 [US10781211, Example 203]
O=C(OC(C(F)(F)F)C(F)(F)F)N1CCC2(CCCN2Cc2cc(N3CCOCC3)cc(C(F)(F)F)c2)CC1 [US10781211, Example 204]
CC1CCCN(c2cc(C(F)(F)F)ccc2CN2CCC3(CCN(C(=O)OC(C(F)(F)F)C(F)(F)F)CC3)C2)C1 (configuration not stated) [US10781211, Example 216]
CC1CCN(c2cc(C(F)(F)F)ccc2CN2CCC3(CCN(C(=O)OC(C(F)(F)F)C(F)(F)F)CC3)C2)C1 (configuration not stated) [US10781211, Example 219]
CC1CCCN(c2cc(CN3CCCC34CCN(C(=O)OC(C(F)(F)F)C(F)(F)F)CC4)cc(C(F)(F)F)c2)C1 (configuration not stated) [US10781211, Example 221]
O=C(OC(C(F)(F)F)C(F)(F)F)N1CCC2(CCN(Cc3ccc(N4CCCCC4)c(C(F)(F)F)c3)C2)CC1 [US10781211, Example 228]
CC1CCN(c2cc(CN3CCC4(CCN(C(=O)OC(C(F)(F)F)C(F)(F)F)CC4)C3)cc(C(F)(F)F)c2)C1 (configuration not stated) [US10781211, Example 229]
O=C(OC(C(F)(F)F)C(F)(F)F)N1CCC2(CCN(Cc3cc(Cl)cc(N4CCCCC4)c3)C2)CC1 [US10781211, Example 232]
O=C(OC(C(F)(F)F)C(F)(F)F)N1CCC2(CCN(Cc3cc(F)cc(N4CCCCC4)c3)C2)CC1 [US10781211, Example 233]
O=C(OC(C(F)(F)F)C(F)(F)F)N1CCC2(CCN(Cc3ccc(C(F)(F)F)c(N4CCCCC4)c3)C2)CC1 [US10781211, Example 234]
O=C(OC(C(F)(F)F)C(F)(F)F)N1CCC2(CCCN2Cc2cc(F)cc(N3CCCCC3)c2)CC1 [US10781211, Example 236]
O=C(OC(C(F)(F)F)C(F)(F)F)N1CCC2(CCN(Cc3ccc(S(F)(F)(F)(F)F)cc3N3CCCCC3)C2)CC1 [US10781211, Example 241]
O=C(OC(C(F)(F)F)C(F)(F)F)N1CCC2(CCCN2Cc2cc(CN3CCCCC3)cc(C(F)(F)F)c2)CC1 [US10781211, Example 244]
O=C(OC(C(F)(F)F)C(F)(F)F)N1CCC2(CCN(Cc3cc(CN4CCCCC4)cc(C(F)(F)F)c3)C2)CC1 [US10781211, Example 245]
CC1CN(c2cc(CN3CCC4(CCN(C(=O)OC(C(F)(F)F)C(F)(F)F)CC4)C3)cc(C(F)(F)F)c2)CCO1 (configuration not stated) [US10781211, Example 252]
O=C(OC(C(F)(F)F)C(F)(F)F)N1CCC2(CCCN2Cc2ccc(C(F)(F)F)cc2CN2CCCC2)CC1 [US10781211, Example 262]
O=C(OC(C(F)(F)F)C(F)(F)F)N1CCC2(CCCN2Cc2cc(N3CCCCC3)cc(S(F)(F)(F)(F)F)c2)CC1 [US10781211, Example 263]
O=C(OC(C(F)(F)F)C(F)(F)F)N1CCC2(CCCN2Cc2cc(CN3CCCCC3)cc(OC(F)(F)F)c2)CC1 [US10781211, Example 269]
O=C(OC(C(F)(F)F)C(F)(F)F)N1CCC2(CCCN2Cc2cc(CN3CCCC3)cc(OC(F)(F)F)c2)CC1 [US10781211, Example 270]
O=C(OC(C(F)(F)F)C(F)(F)F)N1CCC2(CCN(Cc3cc(N4CCOCC4)cc(C(F)(F)F)c3)C2)CC1 [US10781211, Example 277]
